Results reported in patent publication US20260053171A1, “METHANOGEN INHIBITORS” (AGRIZERONZ LIMITED PARTNERSHIP, priority 2022, published 2026).

Test system: methane production in rumen fluid
Assay: Rumen in vitro (RIV) assay, methane production from rumen fluid incubations
Type: cell-based, cattle
Settings: Bos taurus, read-out: RIV % methane reduction +/− SD
Description: The compounds of the present invention were initially screened for activity using an in vitro fully automated incubation system for the measurement of total gas production and gas composition (methane and hydrogen). The system used is described in detail in the paper by Muetzel et al. (2014; Animal Feed Science and Technology 196, 1-11). The system in this specification is referred to as the rumen in vitro system or RIV. The RIV system provides a relatively simple tool for determining the rate and production of methane and also whether the rate and production of methane is inhibited or reduced by a particular compound or feed. Rumen in vitro assays use rumen fluid from donor animals (typically either sheep or cattle) which is typically combined with a buffer and then incubated in sealed fermentation vessels at 39° C. for either 24 or 48 h. These assays systems have been well-characterised and used by the scientific community over the last two decades (Rymer et al. 2005). The system that has been used here to characterise the effects of inhibitors on methane production and gas production, and the formation of H2, was described by Muetzel et al. (2014). Rumen in vitro assay systems reflect what can occur in the rumen in vivo, but only short-term, due to their short incubation times (typically not exceeding 48 h) which is limited by its buffering capacity and the fact that it is a closed system. Stock solutions of inhibitors were re-suspended in dimethylformamide (DMF) at concentrations 1000-fold higher than the highest used for the assays. Any further dilutions were also prepared using DMF. The total amount of inhibitor solution added to the rumen fluid-buffer mixture (60 mL) was 60 μl. Incubations used 60 ml of medium containing 12 ml of filtered rumen fluid and 48 ml of buffer in serum bottles for 24-48 h, essentially as described by Muetzel et al. (2014). Two fistulated cattle were used as donor animals for rumen fluid and treatments were incubated in duplicate bottles. Sets of duplicate incubation vials that contained ryegrass (with rumen fluid-buffer mixture), and ryegrass with 30 μM bromoethanesulfonate (BES) were also incubated as negative and positive controls, respectively. One experiment consists of 2 replicates of an inhibitor at any one concentration run at the same time, and a run can contain up to 32 bottle, including positive (30 µM BES) and negative (no inhibitor added) controls. Compound 1, for example, was tested using the 60 mL rumen in vitro assay system at 50 μM, 10 μM, and 2 μM final concentrations and compared to a positive control with 30 µM BES.

`O=C(O)CCC(=O)N1N=C(c2ccc(-c3ccccc3)cc2)CC1c1ccc2c(c1)OCCO2` (stereo not drawn) [Compound 40, 4-(3-([1,1′-Biphenyl]-4-yl)-5-(2,3-dihydrobenzo[b][1,4]dioxin-6-yl)-4,5-dihydro-1H-pyrazol-1-yl)-4-oxobutanoic acid] gave an inhibition at 10 µM of 39.8 ± 1.3% and an inhibition at 50 µM of 89.5 ± 1.4%.

In the case of `COc1cccc(C2CC(c3ccc(Cl)cc3)=NN2C(=O)CCC(=O)O)c1` (stereo not drawn) [Compound 41, 4-(3-(4-Chlorophenyl)-5-(3-methoxyphenyl)-4,5-dihydro-1H-pyrazol-1-yl)-4-oxobutanoic acid], the inhibition at 50 µM is reported as 13.4 ± 3.2%.

For `COc1ccc(C2CC(c3ccc(Cl)cc3)=NN2C(=O)CCC(=O)O)c(OC)c1` (stereo not drawn) [Compound 42, 4-(3-(4-Chlorophenyl)-5-(2,4-dimethoxyphenyl)-4,5-dihydro-1H-pyrazol-1-yl)-4-oxobutanoic acid], the inhibition at 10 µM was 10.5 ± 3.5% and the inhibition at 50 µM was 80 ± 4.7%.

`COc1ccc(C2CC(c3ccc(Cl)cc3)=NN2C(=O)CCC(=O)O)cc1OC` (stereo not drawn) [Compound 43, 4-(3-(4-Chlorophenyl)-5-(3,4-dimethoxyphenyl)-4,5-dihydro-1H-pyrazol-1-yl)-4-oxobutanoic acid] gave an inhibition at 50 µM of 39.7 ± 7.2%.

For `COc1ccc(C2CC(c3ccc(Cl)cc3)=NN2C(=O)CCC(=O)O)cc1O` (stereo not drawn) [Compound 44, 4-(3-(4-Chlorophenyl)-5-(3-hydroxy-4-methoxyphenyl)-4,5-dihydro-1H-pyrazol-1-yl)-4-oxobutanoic acid], the inhibition at 50 µM was 31.3 ± 0.8%.

Compound `COc1cc(C2CC(c3ccc(Cl)cc3)=NN2C(=O)CCC(=O)O)ccc1O` (stereo not drawn) [Compound 45, 4-(3-(4-Chlorophenyl)-5-(4-hydroxy-3-methoxyphenyl)-4,5-dihydro-1H-pyrazol-1-yl)-4-oxobutanoic acid] has an inhibition at 10 µM of 9.9 ± 1.8% and an inhibition at 50 µM of 73.1 ± 8.6%.

In the case of `COc1cc(C2CC(c3ccc(-c4ccccc4)cc3)=NN2C(=O)CCC(=O)O)ccc1O` (stereo not drawn) [Compound 46, 4-(3-([1,1′-Biphenyl]-4-yl)-5-(4-hydroxy-3-methoxyphenyl)-4,5-dihydro-1H-pyrazol-1-yl)-4-oxobutanoic acid], the inhibition at 50 µM is reported as 48.6 ± 1.7%.

`CCOc1cc(C2CC(c3ccc(Cl)cc3)=NN2C(=O)CCC(=O)O)ccc1O` (stereo not drawn) [Compound 47, 4-(3-(4-Chlorophenyl)-5-(3-ethoxy-4-hydroxyphenyl)-4,5-dihydro-1H-pyrazol-1-yl)-4-oxobutanoic acid] gave an inhibition at 50 µM of 68.3 ± 3.9%.

`COc1cc(C2CC(c3ccc(Cl)cc3)=NN2C(=O)CCC(=O)O)ccc1F` (stereo not drawn) [Compound 48, 4-(3-(4-Chlorophenyl)-5-(4-fluoro-3-methoxyphenyl)-4,5-dihydro-1H-pyrazol-1-yl)-4-oxobutanoic acid] showed an inhibition at 50 µM of 43.6 ± 4.5%.

`O=C(O)CC(=O)N1N=C(c2ccc(Cl)cc2)CC1c1ccc2nccnc2c1` (stereo not drawn) [Compound 49, 3-(3-(4-Chlorophenyl)-5-(quinoxalin-6-yl)-4,5-dihydro-1H-pyrazol-1-yl)-3-oxopropanoic acid] was tested, and the inhibition at 50 µM was 8.1 ± 7.7%.

With `O=C(O)CCCC(=O)N1N=C(c2ccc(Cl)cc2)CC1c1ccc2nccnc2c1` (stereo not drawn) [Compound 50, 5-(3-(4-Chlorophenyl)-5-(quinoxalin-6-yl)-4,5-dihydro-1H-pyrazol-1-yl)-5-oxopentanoic acid] the inhibition at 50 µM was 66.4 ± 2.9%.

For `O=C(O)/C=C/C(=O)N1N=C(c2ccc(Cl)cc2)CC1c1ccc2nccnc2c1` (stereo not drawn) [Compound 51, (E)-4-(3-(4-Chlorophenyl)-5-(quinoxalin-6-yl)-4,5-dihydro-1H-pyrazol-1-yl)-4-oxobut-2-enoic acid], the inhibition at 50 µM was 57.1 ± 7.5%.

For `O=C(O)/C=C\C(=O)N1N=C(c2ccc(Cl)cc2)CC1c1ccc2nccnc2c1` (stereo not drawn) [Compound 52, (Z)-4-(3-(4-Chlorophenyl)-5-(quinoxalin-6-yl)-4,5-dihydro-1H-pyrazol-1-yl)-4-oxobut-2-enoic acid], the inhibition at 50 µM was 34.1 ± 1.3%.

`O=C(O)CCCN1N=C(c2ccc(Cl)cc2)CC1c1ccc2nccnc2c1` (stereo not drawn) [Compound 53, 4-(3-(4-Chlorophenyl)-5-(quinoxalin-6-yl)-4,5-dihydro-1H-pyrazol-1-yl)butanoic acid] was tested, and the inhibition at 10 µM was 19.4 ± 1.9% and the inhibition at 50 µM was 82.1 ± 1.2%.

Compound `CC(C)(C)C(=O)OCOC(=O)CCC(=O)N1N=C(c2ccc(Cl)cc2)CC1c1ccc2nccnc2c1` (stereo not drawn) [Compound 54, (Pivaloyloxy)methyl 4-(3-(4-chlorophenyl)-5-(quinoxalin-6-yl)-4,5-dihydro-1H-pyrazol-1-yl)-4-oxobutanoate] has an inhibition at 50 µM of 23.8 ± 9.4%.

Work on `CS(=O)(=O)NC(=O)CCC(=O)N1N=C(c2ccc(Cl)cc2)CC1c1ccc2nccnc2c1` (stereo not drawn) [Compound 55, 4-(3-(4-Chlorophenyl)-5-(quinoxalin-6-yl)-4,5-dihydro-1-pyrazol-1-yl)-N-(methylsulfonyl)-4-oxobutanamide] yielded an inhibition at 2 µM of less than 5%, an inhibition at 10 µM of 70 ± 4.5% and an inhibition at 50 µM of 96.1 ± 0.5%.

`CS(=O)(=O)NC(=O)CCC(=O)N1N=C(c2ccc(OC(F)(F)F)cc2)CC1c1ccc2nccnc2c1` (stereo not drawn) [Compound 56] gave an inhibition at 2 µM of less than 5%, an inhibition at 10 µM of 72.4 ± 10.6% and an inhibition at 50 µM of 98.6%.

`CS(=O)(=O)NC(=O)CCC(=O)N1N=C(c2ccc(-c3ccccc3)cc2)CC1c1ccc2nccnc2c1` (stereo not drawn) [Compound 57, 4-(3-([1,1′-Biphenyl]-4-yl)-5-(quinoxalin-6-yl)-4,5-dihydro-1H-pyrazol-1-yl)-N-(methylsulfonyl)-4-oxobutanamide] was tested, and the inhibition at 10 µM was 62.7 ± 4.4% and the inhibition at 50 µM was 89.7 ± 0.5%.

For `CC(C)S(=O)(=O)NC(=O)CCC(=O)N1N=C(c2ccc(Cl)cc2)CC1c1ccc2nccnc2c1` (stereo not drawn) [Compound 58], the inhibition at 2 µM was 6 ± 1.6%, the inhibition at 10 µM was 80.4 ± 6.3% and the inhibition at 50 µM was 93.9 ± 4.7%.

With `CN(C)S(=O)(=O)NC(=O)CCC(=O)N1N=C(c2ccc(Cl)cc2)CC1c1ccc2nccnc2c1` (stereo not drawn) [Compound 59, 4-(3-(4-Chlorophenyl)-5-(quinoxalin-6-yl)-4,5-dihydro-1H-pyrazol-1-yl)-N—(N,N-dimethylsulfamoyl)-4-oxobutanamide] the inhibition at 2 µM was 10.6 ± 2.5%, the inhibition at 10 µM was 86.7 ± 7% and the inhibition at 50 µM was 94.4 ± 4%.

Compound `O=C(O)c1cccc(N2N=C(c3ccc(-c4ccccc4)cc3)CC2c2ccc3nccnc3c2)c1` (stereo not drawn) [Compound 61, 3-(3-([1,1′-Biphenyl]-4-yl)-5-(quinoxalin-6-yl)-4,5-dihydro-1H-pyrazol-1-yl)benzoic acid] has an inhibition at 2 µM of 13.1%, an inhibition at 10 µM of 88.3 ± 0.9% and an inhibition at 50 µM of 95.9 ± 0.6%.

`CSc1ccc(C2=NN(C(=O)CCC(=O)O)C(c3ccc4nccnc4c3)C2)cc1` (stereo not drawn) [Compound 62] showed an inhibition at 50 µM of 31.8%.

For `O=C1NC(=O)C(CC(=O)N2N=C(c3ccc(Cl)cc3)CC2c2ccc3nccnc3c2)S1` (stereo not drawn) [Compound 63, 5-(2-(3-(4-Chlorophenyl)-5-(quinoxalin-6-yl)-4,5-dihydro-1H-pyrazol-1-yl)-2-oxoethyl)thiazolidine-2,4-dione], the inhibition at 50 µM was 43.6 ± 2.9%.

`O=C(O)CCC(=O)N1N=C(c2ccc(-c3ccc(OC(F)F)cc3)cc2)CC1c1ccc2nccnc2c1` (stereo not drawn) [Compound 65, 4-(3-(4′-(Difluoromethoxy)-[1,1′-biphenyl]-4-yl)-5-(quinoxalin-6-yl)-4,5-dihydro-1H-pyrazol-1-yl)-4-oxobutanoic acid] was tested, and the inhibition at 2 µM was 26.2% and the inhibition at 10 µM was 90.2%.

`O=C(O)CCC(=O)N1N=C(c2ccc(-c3cc(F)cc(F)c3)cc2)CC1c1ccc2nccnc2c1` (stereo not drawn) [Compound 66, 4-(3-(3′,5′-Difluoro-[1,1′-biphenyl]-4-yl)-5-(quinoxalin-6-yl)-4,5-dihydro-1H-pyrazol-1-yl)-4-oxobutanoic acid] gave an inhibition at 2 µM of 17.5% and an inhibition at 10 µM of 85.4%.

For `CS(=O)(=O)NC(=O)CCC(=O)N1N=C(c2cccc(-c3ccccc3)c2)CC1c1ccc2nccnc2c1` (stereo not drawn) [Compound 68, 4-(3-([1,1′-Biphenyl]-3-yl)-5-(quinoxalin-6-yl)-4,5-dihydro-1H-pyrazol-1-yl)-N-(methylsulfonyl)-4-oxobutanamide], the inhibition at 2 µM was 20.5 ± 1.4% and the inhibition at 10 µM was 85.4 ± 0.5%.

`O=C(CCC(=O)N1N=C(c2ccc(Cl)cc2)CC1c1ccc2nccnc2c1)NS(=O)(=O)c1ccccc1` (stereo not drawn) [Compound 70, 4-(3-(4-Chlorophenyl)-5-(quinoxalin-6-yl)-4,5-dihydro-1H-pyrazol-1-yl)-4-oxo-N-(phenylsulfonyl) butanamide] gave an inhibition at 2 µM of 27.1 ± 13.1% and an inhibition at 10 µM of 88.9 ± 1.5%.

Compound `CN(C)S(=O)(=O)NC(=O)CCC(=O)N1N=C(c2ccc(-c3ccccc3)cc2)CC1c1ccc2nccnc2c1` (stereo not drawn) [Compound 71, 4-(3-([1,1′-Biphenyl]-4-yl)-5-(quinoxalin-6-yl)-4,5-dihydro-1H-pyrazol-1-yl)-N—(N,N-dimethylsulfamoyl)-4-oxobutanamide] has an inhibition at 2 µM of less than 5% and an inhibition at 10 µM of 70.7%.
